# Entries after “also recorded” stand apart in the source; their conditions may differ.
# Experiments:
# [1] = target: MuRF1 E3 ligase activity (Homo sapiens, UniProt Q969Q1); assay: Inhibition of MuRF1 E3 ligase activity (ubiquitination, Western blot); type: biochemical; conditions: 20-100 μmol/L compound, 1 h at 37° C., based on ubiquitination patterns
# Procedure: Compounds were then assessed for effects on MuRF1 E3 ligase activity directed to titin or to MuRF1 itself (self-ubiquitination) by mixing 75 nmol/L UBE1 (Boston Biochem), 1 μmol/L UbcH5c (Boston Biochem), 100 μmol/L Ubiquitin, 4 mmol/L ATP, 100 nmol/L Titin A168-170 with 20-100 μmol/L of respective compounds. Reactions were started by addition of 220 nmol/L MuRF1, followed by 1 h at 37° C., SDS PAGE and Western blot analysis with MuRF1 and titin specific antibodies. All reactions also included 5% DMSO.
# [2] = system: monocrotaline (MCT)-treated C57BL/6 mice; assay: Pulmonary hypertension mouse model, test series 2; type: in vivo; conditions: MCT+compound (0.1 weight-% in chow) vs MCT, 8 weeks
# Procedure: The test series 2 were performed analogous to test series 1. Briefly, Three groups of mice were included in this study: 1) saline-treated mice (sham; n=10); 2) monocrotaline (MCT)-treated mice fed with normal chow (MCT; n=10); and 3) MCT-treated mice fed with MuRF1 inhibitor chow (MCT+compound; n=10 for each compound). 8 weeks old C57BL/6 mice were subcutaneously injected weekly with either MCT (600 mg/kg) or a matched volume of saline for 8 weeks. The MCT+compound group started receiving the inhibitor chow 1 week prior to the MCT injections, whereas the sham and MCT groups were fed an identical chow but without the addition of the selected compound. The compound concentration in the chow was 0.1 weight-%, resulting in a daily compound intake per mouse of about 3 mg. Body weight was recorded every week for each mouse. Mice were sacrificed after 8 weeks treatment. At sacrifice, examination and tissue analysis were performed as described in test series 1.
# [3] = system: ICR-DIO male mice; assay: Glucose and insulin regulation in DIO mice (fasting glucose, OGTT, ITT); type: in vivo
# Text: Analogously to example 2.7, diabetes was induced by a high-fructose high-fat diet (HFD) for 4 months in DIO mice. The mice developed increased fasting glucose and insulin resistance. Control group animals received a normal rodent diet (regular diet). Weight loss was then induced during a 30 days test period. In a first stage, the animals were fed normal rodent diet for 16 days. Then in a second stage the animals received a low-calory diet for 14 days. Two days after start of the first stage, the diet was supplemented with MyoMed-203 (at 1 g compound/1 kg food).
# Test design: ICR-DIO male mice were randomly assigned to groups of 8-10 animals each. Three control groups were included: Control group of mice without obesity (control; regular diet (RD); n=10), obese mice fed with high-fructose high-fat diet during the entire study period (DIO HFD; n=8); and obese mice with initiated weight loss (DIO control; n=8).
# Determining the level of blood glucose was performed after 6-hour fasting. An On Call Plus glucometer (Acon Laboratories, Inc., USA) and specific test strips (REF G133-111) were used for determination of glucose levels. Blood was obtained from the tail vein by incision of the tail tip. 5-6 μl of blood were used for each assay.
# For oral glucose tolerance test (OGTT), mice were orally treated with glucose at dose of 2 g/kg at the dose volume of 10 ml/kg after a 6-hour fasting. Glucose measurements were performed immediately before treatment and at 15, 30, 60 and 120 min after glucose administration. The AUC describing the rate of blood glucose output in each mouse during the test was calculated using the formula: […]
# For insulin tolerance test (ITT), mice were injected intraperitoneally with recombinant human insulin solution (Lilly, France; REF C620001K) at the dose of 0.75 or 0.60 IU/[…] of body weight in the volume of 5 ml/kg after 6-hour fasting. Glucose measurements were performed immediately before treatment and at 15, 30, 60 and 120 min after insulin administration. The results of the rate of blood glucose output were expressed as area under the curve (AUC).
# MuRF1 E3 ligase activity, sequence (Q969Q1 whole entry): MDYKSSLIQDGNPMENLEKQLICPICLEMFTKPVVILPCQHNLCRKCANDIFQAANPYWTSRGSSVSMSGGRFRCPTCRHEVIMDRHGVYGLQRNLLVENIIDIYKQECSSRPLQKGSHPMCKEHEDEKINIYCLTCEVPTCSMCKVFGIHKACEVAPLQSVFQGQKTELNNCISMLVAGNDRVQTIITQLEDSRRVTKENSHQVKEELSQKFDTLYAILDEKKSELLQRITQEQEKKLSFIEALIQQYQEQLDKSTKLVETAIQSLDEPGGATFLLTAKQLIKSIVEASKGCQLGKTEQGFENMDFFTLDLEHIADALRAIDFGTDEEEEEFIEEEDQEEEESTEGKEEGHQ
smiles,measurement,setting,value
"CNC(=O)NC(=O)C(C)OC(=O)c1ccc(COc2ccc3c(C)cc(=O)oc3c2)cc1 (stereo not shown) [MyoMed-946-8, [1-methyl-2-(methylcarbamoylamino)-2-oxo-ethyl] 4-[(4-methyl-2-oxo-chromen-7-yl)oxymethyl]benzoate]",inhibition of MuRF1 E3 ligase activity,[1],significantly inhibit MuRF1 E3 ligase activity
"Cc1cc(=O)oc2cc(OCc3ccc(C(=O)OC(C)C(=O)NC(N)=O)cc3)ccc12 (stereo not shown) [MyoMed-946-5, (1-methyl-2-oxo-2-ureido-ethyl) 4-[(4-methyl-2-oxo-chromen-7-yl)oxymethyl]benzoate]",inhibition of MuRF1 E3 ligase activity,[1],significantly inhibit MuRF1 E3 ligase activity
"Cc1cc(=O)oc2cc(OCc3ccc(C(=O)OCC(=O)NC(=O)NCc4ccccn4)cc3)ccc12 [MyoMed-203, [2-oxo-2-(2-pyridylmethylcarbamoylamino)ethyl] 4-[(4-methyl-2-oxo-chromen-7-yl)oxymethyl]benzoate]","loss of skeletal muscle mass (EDL, TA wet weight; diaphragm maximum force)",[2],most pronounced effect
same,right ventricle hypertrophy,[2],attenuated; also recorded: attenuate the development of right ventricle hypertrophy
same,blood glucose level after 6-hour fasting,"[3]; 1 g compound/1 kg food, vs DIO control, throughout the treatment period",significantly lower
same,hypoglycemic effect according to OGTT,[3]; after 14 days of weight loss and treatment,mild hypoglycemic effect
same,blood glucose at 30 minutes of OGTT,"[3]; day 14, vs DIO control",tended to be lower
same,OGTT calculated area under the glucose elimination curve,[3]; day 28,tended to be lower
same,glucose level at 120 min of OGTT,"[3]; day 28, vs all control groups",significant decrease in the glucose level
same,glucose level at 120 minutes after insulin injection (ITT),[3]; vs all control groups,significant decrease of glucose level
